ChEMBL document CHEMBL1201862, “PubChem BioAssay data set” (2004)
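Protocol summary: plate cells (96-well), add compound at 5 concentrations, incubate 48 h, interpolate endpoints linearly. GI50 = concentration required for 50% inhibition of growth.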 Active and inactive are the calls of the source. No stated cut-off is given here; in the data, active = GI50 up to about 1.1 µM and inactive = higher.

Key:
Assay in all cases: growth of human tumour cells (NCI), 48 h
[1] = test system: 786-0
[2] = test system: COLO 205
[3] = test system: HCT-116
[4] = test system: HCT-15
[5] = test system: HOP-62
[6] = test system: HOP-92
[7] = test system: HT-29
[8] = test system: K562
[9] = test system: MDA-N
[10] = test system: NCI-H226
[11] = test system: NCI-H522
[12] = test system: OVCAR-4
[13] = test system: PC-3
[14] = test system: SK-OV-3
[15] = test system: SN12C
[16] = test system: SW-620
[17] = test system: TK-10
[18] = test system: UO-31
[19] = test system: CCRF-CEM
[20] = test system: T47D

Row | SMILES | GI50 [1] | GI50 [2] | GI50 [3] | GI50 [4] | GI50 [5] | GI50 [6] | GI50 [7] | GI50 [8] | GI50 [9] | GI50 [10] | GI50 [11] | GI50 [12] | GI50 [13] | GI50 [14] | GI50 [15] | GI50 [16] | GI50 [17] | GI50 [18] | GI50 [19] | GI50 [20]
1 | N[C@H]1CCN(c2c(F)cc3c(=O)c(C(=O)O)cn4c3c2Oc2cc3c(ccc5ccccc53)cc2-4)C1 | 2.88 µM (inactive) | 2.75 µM (inactive) | 2.87 µM (inactive) | 3.98 µM | 4.06 µM (inactive) | 2.59 µM (inactive) | 3.08 µM (inactive) | 2.82 µM (inactive) | 3.03 µM (inactive) | 2.58 µM (inactive) | 4 µM (inactive) | 5.25 µM (inactive) | 2.17 µM (inactive) | 5.61 µM (inactive) | 3.23 µM (inactive) | 3.27 µM (inactive) | 4.44 µM (inactive) | 4.79 µM (inactive) |  | 
2 | COc1ccc(N2C(=O)CC(c3c[nH]c4ccccc34)C2=O)cc1 (stereo unspecified) | > 100 µM (inactive) | > 100 µM (inactive) | > 100 µM (inactive) | > 100 µM | > 100 µM (inactive) | > 100 µM (inactive) | > 100 µM (inactive) | > 100 µM (inactive) | > 100 µM (inactive) | > 100 µM (inactive) |  |  | > 100 µM (inactive) | > 100 µM (inactive) | > 100 µM (inactive) | > 100 µM (inactive) | > 100 µM (inactive) | > 100 µM (inactive) | > 100 µM (inactive) | 
3 | COC(=O)[C@@H]1C=C[C@@H](C#N)n2c(=O)n(-c3ccccc3)c(=O)n21 | 25.2 µM (inactive) | 40.3 µM (inactive) | 24.5 µM (inactive) | 30.1 µM | 13.3 µM (inactive) | 45.4 µM (inactive) | 31.1 µM (inactive) | 37.9 µM (inactive) |  | 15.6 µM (inactive) | 14.8 µM (inactive) | 36.3 µM (inactive) |  | 47.5 µM (inactive) | 26.2 µM (inactive) | 41.9 µM (inactive) | 82.2 µM (inactive) | 41.9 µM (inactive) | 25.9 µM (inactive) | 24.2 µM (inactive)
4 | C[N+]12C=CC=C1C(N1CCCC1)c1scc(-c3ccc(F)cc3)c12 (stereo unspecified) | 47.2 µM (inactive) | 18.7 µM (inactive) | 46.2 µM (inactive) |  | 63.7 µM (inactive) |  | 18.3 µM (inactive) | 5.74 µM (inactive) | 17.1 µM (inactive) | 23.5 µM (inactive) | 17.6 µM (inactive) |  | 27.1 µM (inactive) | > 100 µM (inactive) | 11.1 µM (inactive) | 68.2 µM (inactive) |  | > 100 µM (inactive) | 1.89 µM (inactive) | 5.93 µM (inactive)
5 | CCOc1c(OC)cc(C2c3cc4c(c(OCC)c3CC3COC(=O)C32)OCO4)cc1OC (stereo unspecified) | 2.62 µM (inactive) | 2.22 µM (inactive) | 2.16 µM (inactive) | 0.608 µM | 1.78 µM (inactive) | 37.1 µM (inactive) | 2.47 µM (inactive) | 1.83 µM (inactive) |  | 6.84 µM (inactive) | 2.25 µM (inactive) | 8.28 µM (inactive) | 2.37 µM (inactive) | 4.03 µM (inactive) | 2.21 µM (inactive) | 1.24 µM (inactive) | 5.87 µM (inactive) | 3.87 µM (inactive) | 2.67 µM (inactive) | 23 µM (inactive)
6 | COc1cc(C2c3cc4c(cc3[C@@H](Nc3ccccc3)C3COC[C@H]23)OCO4)cc(OC)c1O (stereo partly specified) | 1.1 µM (active) | 3.28 µM (inactive) | 1.41 µM (inactive) | 1.12 µM | 1.48 µM (inactive) |  | 3.06 µM (inactive) | 1.8 µM (inactive) | 7.35 µM (inactive) |  | 2.2 µM (inactive) | 16.9 µM (inactive) | 3.33 µM (inactive) | 2.92 µM (inactive) | 1.9 µM (inactive) | 1.81 µM (inactive) | 7.46 µM (inactive) | 1.15 µM (inactive) | 0.235 µM (active) | 1.19 µM (inactive)
